Experimental data: publication PMC6302903, “Protein and Chemical Determinants of BL-1249 Action and Selectivity for K2P Channels” (ACS Chemical Neuroscience, 2018)

Target: T1, K2P1.1(TWIK-1) (Mus musculus, UniProt O08581)
T1 construct: expressed in transfected cells; host or cells: Xenopus laevis oocytes injected with mRNA made from pGEMHE/pMO
Assay: TEVC of K2P1.1(TWIK-1) in Xenopus oocytes
Format: cell-based
Conditions: concentrations up to the solubility limit (∼80 μM)
Protocol: BL-1249 activates K2P2.1(TREK-1)[18],[40] and K2P10.1(TREK-2),[7] but its effects on other K2P channels have not been characterized. […] In order to test if the original 10 μM assay had missed BL-1249 effects in other K2P channels, we tested concentrations of BL-1249 up to the solubility limit (∼80 μM) against the other K2P subfamily representatives. […]
Xenopus laevis oocytes were harvested in accordance with UCSF IACUC protocol AN129690 and digested in calcium-free ND-96 (96 mM NaCl, 2 mM KCl, 3.8 mM MgCl2) immediately following harvest, as previously described.[6],[10] […] Defolliculated stage V–VI oocytes were injected with 0.2–6.0 ng of mRNA in 50 nL, and currents were recorded 24–48 h after injection. mRNA was synthesized from plasmid DNA using mMessage mMachine Kit (T7 promoter, Ambion, Life Technologies) and purified using RNEasy Kit (Qiagen). […] Once stabilized basal currents were recorded, compounds were perfused at various concentrations in standard ND96 and currents were allowed to increase to stabilization before recording final current. Fold activation upon compound application is expressed as I/I0 (0 mV), derived from the current at 0 mV in the presence of compound divided by the basal current at 0 mV in standard ND96 without compound. Data were analyzed and plotted using Graphpad Prism Version 5 (GraphPad Software, San Diego California USA, www.graphpad.com). […]

T1 sequence (O08581 whole entry): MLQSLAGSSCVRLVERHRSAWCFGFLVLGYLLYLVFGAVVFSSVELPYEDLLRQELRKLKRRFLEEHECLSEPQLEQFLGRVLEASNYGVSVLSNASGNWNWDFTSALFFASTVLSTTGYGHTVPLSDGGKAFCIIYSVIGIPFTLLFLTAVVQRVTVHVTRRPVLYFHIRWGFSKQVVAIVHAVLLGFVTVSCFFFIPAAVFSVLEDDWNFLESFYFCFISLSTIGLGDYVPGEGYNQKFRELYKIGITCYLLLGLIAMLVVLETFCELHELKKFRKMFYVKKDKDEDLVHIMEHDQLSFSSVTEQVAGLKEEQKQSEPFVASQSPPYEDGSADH

c1ccc(-c2nnn[nH]2)c(Nc2cccc3c2CCCC3)c1 [BL-1249, (5,6,7,8-tetrahydro-naphthalen-1-yl)-[2-(1H-tetrazol-5-yl)-phenyl]-amine]
activation of K2P1.1(TWIK-1): failed to find evidence for activation
